Data from US10537548B2, “Composition and medical product for reducing body weight and body fat, and use of said product” (Caliway Biopharmaceuticals Co., Ltd., priority 2014, dated 2020).

Experiment: Animal Experiment I, drug administration during obesity induction (high-fat diet)
Assay type: in vivo, B6 female mice
Settings: oral gavage daily, 8 weeks, compared to obesity control group
Procedure: In this experimental example, 8-week old B6 female mice were experimented and divided into a normal control group, an obesity control group, a resveratrol group (the administered dose of resveratrol was 61.5 mg/kg B.W.), a green tea extract group (the administered dose of green tea extract was 123 mg/kg B.W.), and the plant extract compositions ME001 of the present invention group (the administered dose of ME001 was 676.5 mg/kg B.W.) Five female mice were included in each group for experimentation. During the experimental period, with the exception of the normal control group, the other groups were fed with high-fat diet for eight consecutive weeks to induce obesity symptoms, and were also fed by oral gavage with the test substance daily during the same eight weeks. The obesity control group was fed by oral gavage with an equal volume of sterile water, and the difference in body weight of each group of mice was evaluated. The body weight and average food intake of each animal were recorded weekly during the experimental period. The mice were sacrificed after the experimentation. […] The data of each group are expressed as mean±SD. Letters a, b, and c indicate the results of statistical analysis, wherein different letters indicate significant statistical difference between groups (p<0.05), and identical letters indicate no significant statistical difference between groups (p>0.05).

Oc1ccc(C=Cc2cc(O)cc(O)c2)cc1 [resveratrol]
total body weight gain: did not show statistical difference
